Where “and” joins values, the source holds several entries; their conditions need not be identical. Equal entries are not always repeated.
Experiments:
SV2A = SV2A (Homo sapiens, UniProt Q7L0J3); test: SV2A binding in vitro, displacement of levetiracetam
[1] = treatment-emergent adverse events, multiple dose study in young male subjects; assay type: in vivo, human
From the text: Details on the adverse events occurring in the study is provided below. As may be seen the doses of interest were safe and well tolerated.

[2] = anti-convulsant activity in vivo
[3] = rodent preclinical cognitive deficit models; assay type: in vivo; conditions: range of rodent preclinical cognitive deficit models
[4] = target: T1, synaptic vesicle glycoprotein 2A (Homo sapiens, UniProt Q7L0J3); test: [11C]-UCB-J PET receptor occupancy after single oral dose, healthy male subjects, with PK/occupancy model; assay type: in vivo; conditions: for receptor occupancy: individual subjects
T1 construct: from tissue; host or cells: brain of living healthy male subjects (PET)
T1 sequence (Q7L0J3 whole entry): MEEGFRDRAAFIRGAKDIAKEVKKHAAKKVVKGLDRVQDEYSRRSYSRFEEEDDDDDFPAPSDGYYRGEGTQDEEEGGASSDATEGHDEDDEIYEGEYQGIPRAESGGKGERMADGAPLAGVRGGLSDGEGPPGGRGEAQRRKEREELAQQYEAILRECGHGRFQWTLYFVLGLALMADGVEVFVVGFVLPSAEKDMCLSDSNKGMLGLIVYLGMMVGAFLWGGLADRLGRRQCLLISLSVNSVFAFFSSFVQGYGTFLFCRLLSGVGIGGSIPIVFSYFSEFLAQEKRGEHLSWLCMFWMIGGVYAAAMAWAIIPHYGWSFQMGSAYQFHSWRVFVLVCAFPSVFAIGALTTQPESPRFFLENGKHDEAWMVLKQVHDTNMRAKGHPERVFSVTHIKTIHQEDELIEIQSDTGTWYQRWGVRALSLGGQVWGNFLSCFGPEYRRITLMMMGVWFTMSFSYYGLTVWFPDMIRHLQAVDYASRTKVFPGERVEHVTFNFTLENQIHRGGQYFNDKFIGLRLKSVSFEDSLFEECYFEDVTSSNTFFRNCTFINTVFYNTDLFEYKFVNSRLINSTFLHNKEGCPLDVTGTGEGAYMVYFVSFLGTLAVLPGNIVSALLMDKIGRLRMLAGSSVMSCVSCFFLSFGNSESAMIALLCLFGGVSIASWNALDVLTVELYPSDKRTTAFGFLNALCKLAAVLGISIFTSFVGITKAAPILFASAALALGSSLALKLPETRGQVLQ
Method: All images were acquired using the PET/MR Scanner: GE Signa TOF PET-MR 3 Tesla with software version MP26. As gamma counter, a 1480 Wizard well type gamma counter met 3-inch NaI crystal was used.
[^11C]-UCB-J is a PET tracer for imaging the synaptic vesicle glycoprotein 2A in the human brain. [^11C]-UCB-J is (4R)-1-{[3-(^11C)Methylpyridin-4-yl]methyl}-4-(3,4,5-trifluorophenyl)pyrrolidin-2-one.
Participants arrived approximately 90 minutes prior to the scheduled scan. This allowed the positioning of all necessary peripheral catheters before the start of the PET scan. Prior to PET imaging, at the PET centre, an indwelling venous cannula was inserted into an antecubital vein of the forearm to inject the radioligand. When required, an indwelling arterial catheter was placed in the radial artery of the opposite arm (if not feasible, can be in same arm) by a trained physician after numbing the area with a local anaesthetic prior to placement to withdraw blood for the measurement of the PET input function. On each PET scan day, no more than 3 skin penetrations per arm and one arterial penetration per arm were permitted before trying in the other arm. The venous catheter was used for the injection of [^11C]-UCB-J. [^11C]UCB-J was administered as an i.v. bolus into the antecubital vein over approximately 20 seconds. The tracer volume was between 6 ml and 12 ml. With the pump system configured to inject 0.33 ml per second, tracer injection time varied between 18 sec and 36 sec. The arterial catheter was used for collection of arterial blood samples and no participant received more than two arterial catheterizations during their participation in the study. An arterial catheter was maintained for up to 2 days depending on evaluation by medical staff. In case two arterial catheters were placed during the study conduct, then placement in alternate wrists was done. If the medical staff decided to remove an arterial catheter at any given time, a new one was placed for a next scan taking into account that no more than two arterial catheterizations per participant were allowed. Participants were asked to void their bladder before the start of each PET scan. Participants were positioned in the PET scanner so that scans were acquired in 3D list-mode in one bed position and the entire brain volume was included in the field of view. At screening and simultaneous with the PET acquisition, both a 3D volumetric T1-weighted BRAVO sequence (plane: sagittal; TE: 3.2 ms; TR: 8.5 ms; TI: 450 ms; Flip Angle: 12; Receiver Bandwidth: 31.2; NEX: 1; voxelsize: 1×1×1 mm) and 3D T2-weighted CUBE FLAIR sequence (plane: sagittal direction; TE: 137 ms; #echoes: 1; echo train length: 190; TR: 8500 ms; […]; Receiver Bandwidth: 31.25; NEX: 1; voxelsize: 1.2×1.3×1.4 mm) were acquired to detect possible structural abnormalities, and serve as an anatomical reference to define ROIs when co-registered with the PET scan. To correct for attenuation, a Zero-Echo Time (ZTE) scan was taken to allow the generation of a MR based attenuation map. At intermediate time points during acquisition, the ZTE sequence was repeated to have additional data for adjusting the MR based attenuation map in case of severe head motion. Next to anatomical MR sequences, eASL and rs-fMRI data were acquired simultaneously with the PET data, to determine regional cerebral blood flow and regional interactions in the brain in a resting or task-negative state. At least one eASL and one rs-fMRI sequence were performed during the PET acquisition but these sequences were repeated if time allowed. The total duration of the emission scan was 90 minutes. PET data will be rebinned in time frames according to the following scheme: • 6×15s-3×30s-3×60s-2×90s-2×3 min-9×5 min-3×10 min […]

SV2A, sequence (Q7L0J3 whole entry, species assumed): as the sequence (Q7L0J3 whole entry) above

Structure (SMILES): O=C1C[C@H](c2cc(F)c(F)c(F)c2)CN1Cn1ncnc1Cl [compound of example 1, (4R)-1-[(5-chloro-1H-1,2,4-triazol-1-yl)methyl]-4-(3,4,5-trifluorophenyl)pyrrolidin-2-one]
- affinity of binding to SV2A (levetiracetam site) (SV2A): high affinity
- displacement of the binding of levetiracetam to SV2A (SV2A; in vitro): competitively displaces
- At least 1 TEAE definitively related to treatment, n (%) ([1]; 5 mg, N = 6): 0 n (%)
- At least 1 TEAE possibly related to treatment, n (%) ([1]; 5 mg, N = 6): 0 n (%)
- At least 1 TEAE probably related to treatment, n (%) ([1]; 5 mg, N = 6): 0 n (%)
- At least one TEAE, n (%) ([1]; 5 mg, N = 6): 0 n (%)
- At least 1 TEAE definitively related to treatment, n (%) ([1]; 10 mg, N = 6): 0 n (%)
- At least 1 TEAE possibly related to treatment, n (%) ([1]; 10 mg, N = 6): 0 n (%)
- At least 1 TEAE probably related to treatment, n (%) ([1]; 10 mg, N = 6): 1 (16.7) n (%)
- At least one TEAE, n (%) ([1]; 10 mg, N = 6): 2 (33.3) n (%)
- At least 1 TEAE definitively related to treatment, n (%) ([1]; 20 mg, N = 6): 0 n (%)
- At least 1 TEAE possibly related to treatment, n (%) ([1]; 20 mg, N = 6): 4 (66.7) n (%)
- At least 1 TEAE probably related to treatment, n (%) ([1]; 20 mg, N = 6): 0 n (%)
- At least one TEAE, n (%) ([1]; 20 mg, N = 6): 4 (66.7) n (%)
- At least 1 TEAE definitively related to treatment, n (%) ([1]; all doses, N = 18): 0 n (%)
- At least 1 TEAE possibly related to treatment, n (%) ([1]; all doses, N = 18): 4 (22.2) n (%)
- At least 1 TEAE probably related to treatment, n (%) ([1]; all doses, N = 18): 1 (5.6) n (%)
- At least one TEAE, n (%) ([1]; all doses, N = 18): 6 (33.3) n (%)
- anti-convulsant activity [2]: without anti-convulsant activity
- effect on the anti-convulsant effect of levetiracetam [2]: competitively inhibits
- pro-cognitive effects [3]: possesses pro-cognitive effects
- receptor occupancy ([4]; 1 mg single oral dose, 22 h): below level of detection
- receptor occupancy ([4]; 1 mg single oral dose, tmax (2 h)): 25% and 21%
- receptor occupancy ([4]; 2 mg single oral dose, 22 h): 19% and 20%
- receptor occupancy ([4]; 2 mg single oral dose, tmax (2 h)): 42% and 39%
- receptor occupancy ([4]; 10 mg single oral dose, 22 h): 46% and 50%
- receptor occupancy ([4]; 10 mg single oral dose, tmax (2 h)): 68% and 69%
- receptor occupancy ([4]; 20 mg single oral dose, 26 h): 56% and 66%
- receptor occupancy ([4]; 20 mg single oral dose, tmax (2 h)): 76%
- emax of PK/occupancy model (mean) ([4]; humans): 84.9
- EC50 ([4]; humans, plasma concentration, read-out: EC50, plasma concentration vs SV2A occupancy (PK/occupancy model, mean) (converted)): 75.3 nM
